Literature values as cited in publication PMC9516332 (Frontiers in Oncology, 2022).
Where two headings read alike, the source gives them in different places.

Experiments:
[1] = molecular target: panel of 255 wild-type kinases (Homo sapiens, UniProt P43405); details: kinase SYK, 1 µmol/L single concentration, cited from earlier work
[2] = molecular target: T1, panel of 255 wild-type kinases (Homo sapiens, UniProt P54762); details: kinase EPHB1, 1 µmol/L single concentration, cited from earlier work
T1 sequence (P54762 18-984): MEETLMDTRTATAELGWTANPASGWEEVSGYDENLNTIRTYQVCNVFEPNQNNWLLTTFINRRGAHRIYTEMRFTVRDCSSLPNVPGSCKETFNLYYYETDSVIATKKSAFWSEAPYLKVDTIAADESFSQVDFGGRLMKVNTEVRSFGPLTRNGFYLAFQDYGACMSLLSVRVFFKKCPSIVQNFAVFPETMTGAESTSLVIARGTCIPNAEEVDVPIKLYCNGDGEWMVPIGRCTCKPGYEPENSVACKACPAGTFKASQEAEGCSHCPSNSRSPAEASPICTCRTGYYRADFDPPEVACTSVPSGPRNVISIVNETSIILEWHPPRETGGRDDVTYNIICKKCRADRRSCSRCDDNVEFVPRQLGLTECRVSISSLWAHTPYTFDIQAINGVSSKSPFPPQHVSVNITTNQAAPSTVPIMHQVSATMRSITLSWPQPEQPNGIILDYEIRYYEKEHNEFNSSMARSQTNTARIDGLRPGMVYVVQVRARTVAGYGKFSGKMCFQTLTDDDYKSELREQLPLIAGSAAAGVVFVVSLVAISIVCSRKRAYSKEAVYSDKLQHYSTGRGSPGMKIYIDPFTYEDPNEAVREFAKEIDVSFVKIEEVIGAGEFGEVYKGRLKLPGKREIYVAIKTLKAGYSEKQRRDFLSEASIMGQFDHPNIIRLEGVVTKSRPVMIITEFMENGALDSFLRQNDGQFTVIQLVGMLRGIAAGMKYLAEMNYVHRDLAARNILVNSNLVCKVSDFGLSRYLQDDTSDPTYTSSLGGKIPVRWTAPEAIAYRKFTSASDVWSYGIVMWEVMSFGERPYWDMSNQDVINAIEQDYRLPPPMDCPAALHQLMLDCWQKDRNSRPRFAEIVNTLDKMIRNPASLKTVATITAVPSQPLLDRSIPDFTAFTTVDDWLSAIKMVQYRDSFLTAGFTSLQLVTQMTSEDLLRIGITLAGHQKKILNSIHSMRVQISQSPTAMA

[3] = molecular target: panel of 255 wild-type kinases (Homo sapiens, UniProt Q7KZI7); details: MARK2, 1 µmol/L single concentration, cited from earlier work
[4] = molecular target: panel of 255 wild-type kinases (Homo sapiens, UniProt O60674); details: kinase JAK2, 1 µmol/L single concentration, cited from earlier work
[5] = molecular target: T2, panel of 255 wild-type kinases (Homo sapiens, UniProt P30530); details: AXL kinase assay, 1 µmol/L single concentration, cited from earlier work
T2 sequence (P30530 26-894): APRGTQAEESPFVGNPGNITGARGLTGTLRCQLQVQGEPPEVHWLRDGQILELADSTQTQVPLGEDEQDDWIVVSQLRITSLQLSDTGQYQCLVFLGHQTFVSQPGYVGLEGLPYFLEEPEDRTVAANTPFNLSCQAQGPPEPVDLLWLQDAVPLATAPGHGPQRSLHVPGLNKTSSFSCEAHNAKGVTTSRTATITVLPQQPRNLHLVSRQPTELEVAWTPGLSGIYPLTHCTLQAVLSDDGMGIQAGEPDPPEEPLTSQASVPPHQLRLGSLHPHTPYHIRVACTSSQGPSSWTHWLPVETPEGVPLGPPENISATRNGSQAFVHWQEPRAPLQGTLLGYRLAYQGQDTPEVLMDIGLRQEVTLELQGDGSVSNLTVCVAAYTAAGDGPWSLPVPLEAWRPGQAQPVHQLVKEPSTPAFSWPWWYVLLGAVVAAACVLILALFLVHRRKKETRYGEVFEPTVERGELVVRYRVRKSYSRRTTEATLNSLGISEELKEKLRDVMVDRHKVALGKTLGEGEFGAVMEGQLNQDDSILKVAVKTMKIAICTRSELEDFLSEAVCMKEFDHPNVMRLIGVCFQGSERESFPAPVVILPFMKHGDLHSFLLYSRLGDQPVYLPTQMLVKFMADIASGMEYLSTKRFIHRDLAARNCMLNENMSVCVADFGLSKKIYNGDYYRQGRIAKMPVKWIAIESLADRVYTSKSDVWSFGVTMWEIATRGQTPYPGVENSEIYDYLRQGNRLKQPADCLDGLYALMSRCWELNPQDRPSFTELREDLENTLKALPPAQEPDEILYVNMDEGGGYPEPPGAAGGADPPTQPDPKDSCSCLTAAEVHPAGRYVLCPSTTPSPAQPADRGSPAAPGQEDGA

[6] = molecular target: panel of 255 wild-type kinases (Homo sapiens, UniProt Q13554); details: CaMK2β kinase assay, 1 µmol/L single concentration, cited from earlier work
[7] = molecular target: panel of 255 wild-type kinases (Homo sapiens, UniProt P49759); details: kinase CLK1, 1 µmol/L single concentration, cited from earlier work
[8] = molecular target: panel of 255 wild-type kinases (Homo sapiens, UniProt Q9Y6E0); details: MST3, 1 µmol/L single concentration, cited from earlier work
[9] = molecular target: panel of 255 wild-type kinases (Homo sapiens, UniProt P23443); details: p70S6K, 1 µmol/L single concentration, cited from earlier work
[10] = molecular target: panel of 255 wild-type kinases (Homo sapiens, UniProt Q96SB4); details: kinase SRPK1, 1 µmol/L single concentration, cited from earlier work
[11] = ref DOI: 10.1371/journal.pone.0092146
[12] = ref DOI: 10.1158/1535-7163.MCT-18-0877

SMILES	%-inhibition at 1 µmol/L, SYK [1, 11]	%-inhibition at 1 µmol/L, EPHB1 [2, 11]	%-inhibition, MARK2 [3, 11]	%-inhibition at 1 µmol/L, JAK2 [4, 11]	%-inhibition AXL [5, 11]	%-inhibition CaMK2β [6, 11]	%-inhibition at 1 µmol/L, CLK1 [7, 11]	%-inhibition, MST3 [8, 11]	%-inhibition, p70S6K [9, 11]	%-inhibition at 1 µmol/L, SRPK1 [10, 11]	%-inhibition at 1 µmol/L, SYK [1, 12]	%-inhibition at 1 µmol/L, EPHB1 [2, 12]	%-inhibition, MARK2 [3, 12]	%-inhibition at 1 µmol/L, JAK2 [4, 12]	%-inhibition AXL [5, 12]	%-inhibition CaMK2β [6, 12]	%-inhibition at 1 µmol/L, CLK1 [7, 12]	%-inhibition, MST3 [8, 12]	%-inhibition, p70S6K [9, 12]	%-inhibition at 1 µmol/L, SRPK1 [10, 12]
CCCS(=O)(=O)Nc1ccc(F)c(C(=O)c2c[nH]c3ncc(-c4ccc(Cl)cc4)cc23)c1F [vemurafenib]	-3.77%	-1.63%	-0.167%	18%	20%	-6.64%	5%	-1.73%	9%	2%	–	–	–	–	–	–	–	–	–	–
CC(=O)Nc1cccc(-n2c(=O)n(C3CC3)c(=O)c3c(Nc4ccc(I)cc4F)n(C)c(=O)c(C)c32)c1 [trametinib]	-5%	-8%	-6%	1.75%	-1.12%	0.738%	-0.618%	1.75%	-1.39%	-0.0691%	–	–	–	–	–	–	–	–	–	–
CCc1cc2c(cc1N1CCC(N3CCOCC3)CC1)C(C)(C)c1[nH]c3cc(C#N)ccc3c1C2=O [alectinib]	–	–	–	–	–	–	–	–	–	–	-9%	21%	5.66%	-3%	59%	2.14%	43%	-2.37%	2.73%	83%
CC(C)(C)c1nc(-c2cccc(NS(=O)(=O)c3c(F)cccc3F)c2F)c(-c2ccnc(N)n2)s1 [dabrafenib]	37%	12%	2.85%	–	30%	-0.277%	7%	0.532%	–	–	–	–	–	–	–	–	–	–	–	–
CC#CC(=O)N1CCC[C@H]1c1nc(-c2ccc(C(=O)Nc3ccccn3)cc2)c2c(N)nccn12 [acalabrutinib]	–	–	–	–	–	–	–	–	–	–	-19%	-1.4%	-9%	-9%	-0.457%	-1.09%	-8%	-2.52%	-14%	-4.73%
O=C(c1ccc(F)c(F)c1Nc1ccc(I)cc1F)N1CC(O)([C@@H]2CCCCN2)C1 [cobimetinib]	–	–	–	–	–	–	–	–	–	–	-23%	4%	-6.58%	1.2%	3%	-0.487%	-0.28%	4.62%	19%	-11%
C=CC(=O)Nc1cc(Nc2nccc(-c3cn(C)c4ccccc34)n2)c(OC)cc1N(C)CCN(C)C [osimertinib]	–	–	–	–	–	–	–	–	–	–	-38%	13%	26%	4%	43%	5%	47%	5.71%	21%	-9%
Cc1cc(Nc2ncc(Cl)c(Nc3ccccc3S(=O)(=O)C(C)C)n2)c(OC(C)C)cc1C1CCNCC1 [ceritinib]	–	–	–	–	–	–	–	–	–	–	5%	26%	4%	-5.35%	56%	23%	99%	31%	16%	–
CO[C@@H]1[C@H](N(C)C(=O)c2ccccc2)C[C@H]2O[C@]1(C)n1c3ccccc3c3c4c(c5c6ccccc6n2c5c31)C(=O)NC4 [midostaurin]	–	–	–	–	–	–	–	–	–	–	97%	–	–	99%	87%	–	–	–	82%	1.28%
C=CC(=O)N1CCC[C@@H](n2nc(-c3ccc(Oc4ccccc4)cc3)c3c(N)ncnc32)C1 [ibrutinib]	–	–	–	–	–	–	–	–	–	–	-20%	12%	2.67%	0.407%	9%	-2.56%	–	8%	19%	1.2%
C[C@@H](Oc1cc(-c2cnn(C3CCNCC3)c2)cnc1N)c1c(Cl)ccc(F)c1Cl [crizotinib]	–	93%	26%	98%	–	–	13%	11%	40%	4.55%	–	–	–	–	–	–	–	–	–	–
